Test results as given in patent US10532068B2, “Dual molecular delivery of oligonucleotides and peptide containing conjugates” (Merck Sharp & Dohme Corp., priority 2013, dated 2020).
Strand notation (5' to 3'): a small letter for the sugar, then the base; units joined by * are phosphorothioate-linked, units joined directly phosphodiester-linked; [ ] holds rarer units or linkages, { } end groups; capitals alone tell only the bases. Where no end group is shown, it is not given here. [ ]: non-standard residue; d: D form. {NH2C6-invAb} = cap: inverted abasic residue carrying an aminohexyl phosphate (attachment handle); [invAb] = inverted abasic unit; m = 2'-O-methyl; f = 2'-fluoro

Experiments:
[1] = system: CTNNB1; test: In vivo evaluation in mice: liver mRNA knockdown measurement (TaqMan qPCR); set-up: species or system CD-1 mice; details: for In vivo mRNA knockdown (%): Table 6, mice; for time course of mRNA KD in DMD format compared to 5-fold higher dose of siRNA-III alone: FIG. 4, sequential dosing, peptide 15 min after siRNA
Experimental: (§1) Female CD-1 mice (Charles River) were injected in accordance with either a sequential dosing paradigm or a co-dosing paradigm. In the sequential dosing paradigm, the targeted siRNA (SCE) is dosed at t=0 and the targeted peptide is separately dosed up to 2 hr before the SCE (−2 hr) or up to 24 hr after the SCE (+24 hr). In the co-dosing paradigm, the SCE and peptides are co-formulated and dosed together in the same formulation as a single injection at t=0. The mice were dosed either by intravenous (i.v.) or subcutaneous (s.c.) injection of SCE and peptide. For the i.v. doses, the compounds were injected into the tail vein of the mice. For the s.c. doses, the compounds were injected in the subcutaneous space on the back of the mouse between the shoulder blades. At the indicated harvest times (measured from t=0 when the siRNA was dosed, regardless of when the peptide was dosed), the animals were sacrificed and 3 mm liver punches were collected, preserved in RNAlater (Ambion), and stored at 4° C. Separate 5 mm liver punches were collected, placed in 96-well plates, frozen on dry ice, and stored at −80° C. until use.
The 3 mm liver punches were removed from RNAlater and homogenized in Trizol (Invitrogen) using a bead mill tissue lyser (Qiagen); disruption was performed for two 5-minute cycles at 30 Hz. RNA extraction was performed using 1-bromo-2-chloropropane (Acros Organics) and total RNA was isolated from the aqueous phase using the MagMax RNA isolation method (Ambion). […] TaqMan qPCR analysis was performed with an ABI 7900 Real-Time PCR System using TaqMan Fast Advanced Master Mix (Applied Biosystems). All TaqMan probes and primers for CTNNB1 and PPIB (housekeeping gene) were purchased from Applied Biosystems as pre-validated gene expression assays. Results are calculated by the comparative Ct method, where the difference between the CTNNB1 Ct value and the PPIB Ct value (ΔCt) is calculated and then further normalized relative to the PBS control by taking a second difference (ΔΔCt), as described previously (1).

[2] = Lethality observed in the in vivo evaluation in mice; set-up: species or system CD-1 mice; key to lethal at this dose (asterisk at targeted peptide dose): *: lethal at this dose
Experimental: as §1

[3] = siRNA metabolic stability (FIG. 6 legend); details: order siRNA-I>siRNA-V>siRNA-VI
[4] = molecular target: T1, RISC (Mus musculus, UniProt Q8CJG0); test: Quantitation of siRNA bound to RISC in mouse liver (Ago2 immunoprecipitation, stem-loop qPCR); format: in vivo, CD-1 mice; details: FIG. 5
T1 construct: from tissue; host or cells: liver of female CD-1 mice
Experimental: as §1, with “use. […]” for “use.”

[5] = sequential, peptide IV 15 min after siRNA IV, TGN-L-siRNA-III 0.5 mg/kg, peptide 2 mg/kg
[6] = sequential, peptide IV 15 min after siRNA IV, TGN-L-siRNA-III 0.5 mg/kg, peptide 10 mg/kg
[7] = sequential, peptide IV 15 min after siRNA IV, TGN-L-siRNA-III 0.5 mg/kg, peptide 25 mg/kg
[8] = Table 6, TGN-L-siRNA-III 0.5 mg/kg IV, peptide 25 mg/kg IV 15 min after siRNA
[9] = Table 6, TGN-L-siRNA-III 0.25 mg/kg IV, peptide 10 mg/kg IV 15 min after siRNA

T1 sequence (Q8CJG0 whole entry): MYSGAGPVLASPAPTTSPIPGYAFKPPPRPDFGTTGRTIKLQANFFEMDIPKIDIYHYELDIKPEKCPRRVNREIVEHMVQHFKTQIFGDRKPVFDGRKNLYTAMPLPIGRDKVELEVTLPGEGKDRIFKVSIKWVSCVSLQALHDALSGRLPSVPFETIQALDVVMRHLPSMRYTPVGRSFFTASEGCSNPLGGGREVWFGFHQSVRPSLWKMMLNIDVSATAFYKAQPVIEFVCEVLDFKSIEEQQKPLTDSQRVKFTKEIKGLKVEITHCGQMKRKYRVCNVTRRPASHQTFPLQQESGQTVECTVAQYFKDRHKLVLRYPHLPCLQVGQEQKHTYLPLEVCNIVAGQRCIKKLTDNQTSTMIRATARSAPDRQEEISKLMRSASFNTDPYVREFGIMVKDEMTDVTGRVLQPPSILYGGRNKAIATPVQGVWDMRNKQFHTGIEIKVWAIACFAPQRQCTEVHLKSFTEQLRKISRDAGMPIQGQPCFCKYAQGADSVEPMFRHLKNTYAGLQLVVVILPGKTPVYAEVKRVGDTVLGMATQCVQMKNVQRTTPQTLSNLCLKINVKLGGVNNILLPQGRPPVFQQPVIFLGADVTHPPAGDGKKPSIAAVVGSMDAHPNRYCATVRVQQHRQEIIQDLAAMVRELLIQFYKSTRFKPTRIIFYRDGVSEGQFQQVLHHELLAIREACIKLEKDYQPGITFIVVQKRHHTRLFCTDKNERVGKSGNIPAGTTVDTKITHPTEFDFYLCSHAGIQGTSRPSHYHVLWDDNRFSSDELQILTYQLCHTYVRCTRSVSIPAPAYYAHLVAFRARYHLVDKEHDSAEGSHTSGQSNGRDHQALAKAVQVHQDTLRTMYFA

TGN-S-S-SEQ ID NO: 1248 (D) (C[dF][dL][dE][dE][dL][dW][dE][dL][dL][dE][dH][dL][dL]; not fully specified (residue 1); listed as Homo sapiens)
In vivo mRNA knockdown (%) [1, 5]: 42%
In vivo mRNA knockdown (%) [1, 6]: 74%
In vivo mRNA knockdown (%) [1, 7]: 58%
lethal at this dose (asterisk at targeted peptide dose) [2, 8]: 25*

TGN-S-S-SEQ ID NO: 1419 (D) (C[dF][dL][dE][dE][dL][dW]G[dL][dL][dE][dH][dL][dL]; not fully specified (residue 1); listed as Homo sapiens)
In vivo mRNA knockdown (%) [1, 5]: 43%
In vivo mRNA knockdown (%) [1, 6]: 78%
In vivo mRNA knockdown (%) [1, 7]: 76%
lethal at this dose (asterisk at targeted peptide dose) [2, 8]: 25*

TGN-S-S-SEQ ID NO: 1628 (D) ([dC]G[dL][dL][dA][dI]X[dE][dI][dE][dE][dL][dL][dE][dE]G[dL][dE][dN][dL][dI][dD][dW][dW][dN][dS]; not fully specified; also: TGN via disulfide; listed as Homo sapiens)
Mortality (words printed in the knockdown column) [2, 9]: All mice died
lethal at this dose (asterisk at targeted peptide dose) [2, 9]: 10*

TGN-S-S-SEQ ID NO: 1654 (D) (CG[dL][dL][dE][dE][dI][dE][dE][dL][dL][dE][dE]G[dL][dE][dN][dL][dI][dD][dW]G[dN][dS]; not fully specified (residue 1); listed as Homo sapiens)
In vivo mRNA knockdown (%) ([1]; sequential, peptide IV 15 min after siRNA IV, TGN-L-siRNA-III 0.25 mg/kg, peptide 2 mg/kg): 51%
In vivo mRNA knockdown (%) ([1]; sequential, peptide IV 15 min after siRNA IV, TGN-L-siRNA-III 0.25 mg/kg, peptide 10 mg/kg): 72%
In vivo mRNA knockdown (%) ([1]; sequential, peptide IV 15 min after siRNA IV, TGN-L-siRNA-III 0.25 mg/kg, peptide 50 mg/kg): 65%
lethal at this dose (asterisk at targeted peptide dose) ([2]; Table 6, TGN-L-siRNA-III 0.25 mg/kg IV, peptide 50 mg/kg IV 15 min after siRNA): 50*

siRNA-I: CTNNB1 ds siRNA, passenger SEQ ID NO 1803, guide SEQ ID NO 1804 (sense {NH2C6-invAb}-mCmUfGmUmUfGfGfAmUmUfGfAmUmUmCfGfAfAfAmU*mU[invAb]; guide mU*fU*mU*fCmGfAmAfUmCfAmAfUmCfCmAfAmCfAmGmU*mU; targeting ligand attached via linker, site not given here)
time course of mRNA KD in DMD format compared to 5-fold higher dose of siRNA-III alone [1]: faster and greater KD
effect of the timing of peptide dose on activity ([1]; FIG. 6, peptide within 2 hr before up to 24 hr after siRNA dose): does not significantly change the activity
siRNA stability (metabolic stability) [3]: highly stable

siRNA-III: CTNNB1 ds siRNA, passenger SEQ ID NO 1803, guide SEQ ID NO 1806 (vinylPmoeT) (sense CUGUUGGAUUGAUUCGAAAUU; guide TUUCGAAUCAAUCCAACAGUU; vinylphosphonate MOE T; (1)..(1) aminohexyl phosphate inverted abasic cap; (1)..(2) 2′-O-methyl; (3)..(3) 2′-deoxy-2′-fluoro; (4)..(5) 2′-O-methyl; (6)..(8) 2′-deoxy-2′-fluoro; (9)..(10) 2′-O-methyl; (11)..(12) 2′-deoxy-2′-fluoro; (13)..(15) 2′-O-methyl; (16)..(19) 2′-deoxy-2′-fluoro; (20)..(21) 2′-O-methyl; (20)..(21) phosphorothioate internucleotide linkage; (21)..(21) inverted abasic cap; (1)..(1) terminal vinyl phosphate; (1)..(1) 2′-methoxyethoxy; (2)..(21) ribonucleotide unmodified or modified as described for this sequence; (2)..(2) 2′-deoxy-2′-fluoro; (3)..(3) 2′-O-methyl; (4)..(4) …)
time course of mRNA KD in DMD format compared to 5-fold higher dose of siRNA-III alone [1]: faster and greater KD
time course of RISC loading [4]: faster RISC loading

siRNA-IV: CTNNB1 ds siRNA, passenger SEQ ID NO 1807 (clickA, 5Chol), guide SEQ ID NO 1806 (sense CUGUUGGAUUGAUUCGAAAUU; guide TUUCGAAUCAAUCCAACAGUU; clickA; 5' cholesterol; (1)..(1) aminohexyl phosphate inverted abasic cap; (1)..(2) 2′-O-methyl; (3)..(3) 2′-deoxy-2′-fluoro; (4)..(5) 2′-O-methyl; (6)..(8) 2′-deoxy-2′-fluoro; (9)..(10) 2′-O-methyl; (11)..(12) 2′-deoxy-2′-fluoro; (13)..(15) 2′-O-methyl; (16)..(16) 2′-deoxy-2′-fluoro; (17)..(17) 2′ propagyl; (18)..(19) 2′-deoxy-2′-fluoro; (20)..(21) 2′-O-methyl; (20)..(21) phosphorothioate internucleotide linkage; (21)..; (1)..(1) terminal vinyl phosphate; (1)..(1) 2′-methoxyethoxy; (2)..(21) ribonucleotide unmodified or modified as described for this sequence; (2)..(2) 2′-deoxy-2′-fluoro; …)
In vivo mRNA knockdown (%) ([1]; siRNA-IV 0.5 mg/kg IV, peptide dose 0): 25%
In vivo mRNA knockdown (%) ([1]; siRNA-IV 2 mg/kg IV, peptide dose 0): 25%
In vivo mRNA knockdown (%) ([1]; siRNA-IV 5 mg/kg IV, peptide dose 0): 35%

siRNA-V: CTNNB1 ds siRNA, passenger SEQ ID NO 1803, guide SEQ ID NO 1808 (sense {NH2C6-invAb}-mCmUfGmUmUfGfGfAmUmUfGfAmUmUmCfGfAfAfAmU*mU[invAb]; guide mUfUmUfCmGfAmAfUmCfAmAfUmCfCmAfAmCfAmGmU*mU)
activity (KD) ([1]; FIG. 6, peptide dose times within 2 hr (before or after) the siRNA): ~25%
siRNA stability (metabolic stability) [3]: moderately stable

siRNA-VI: CTNNB1 ds siRNA, passenger SEQ ID NO 1803, guide SEQ ID NO 1809 (sense {NH2C6-invAb}-mCmUfGmUmUfGfGfAmUmUfGfAmUmUmCfGfAfAfAmU*mU[invAb]; guide fUfUfUmCfGfAfAmUmCfAfAmUmCfCfAfAmCfAfGmU*mU)
siRNA stability (metabolic stability) [3]: more unstable
